{"source": "patent US9229014B2", "about": "“Methods of assessing the need for and the effectiveness of therapy with antioxidants” (priority 2004, dated 2016)", "origin": "cited, not measured here", "key": {"heart and liver tissues": {"test_system": "heart and liver tissues", "conditions": "ADR-induced rats; for serum and tissue levels of LDH, aminotransferases and ALP: comparison with control group"}, "[1]": {"conditions": "lipid-soluble antioxidant"}}, "data": [{"molecule": "COc1cccc2c1C(=O)c1c(O)c3c(c(O)c1C2=O)C[C@@](O)(C(=O)CO)C[C@@H]3O[C@H]1C[C@H](N)[C@H](O)[C@H](C)O1", "note": "[ADR, adriamycin]", "values": [{"measurement": "serum and tissue levels of LDH, aminotransferases and ALP", "setting": "heart and liver tissues", "result": "significantly elevated"}]}, {"molecule": "CC1=C(/C=C/C(C)=C/C=C/C(C)=C/C=C/C=C(C)/C=C/C=C(C)/C=C/C2=C(C)C[C@@H](O)CC2(C)C)C(C)(C)CCC1", "note": "[Beta-Cryptoxanthin]", "values": [{"measurement": "antioxidant activity relative to vitamin E", "setting": "[1]", "result": "3.1 times higher than vitamin E"}]}, {"molecule": "N.N.O=C([O-])C1(C(=O)[O-])CCC1.[Pt+2]", "note": "[Carboplatin]", "values": [{"measurement": "reduced to oxidized glutathione ratio, antioxidant enzyme activities", "setting": "inferior colliculus; 4 days after treatment", "result": "significantly depressed"}, {"measurement": "nitric oxide and lipid peroxidation, xanthine oxidase, and manganese superoxide dismutase activities", "setting": "inferior colliculus; not in the cerebellum", "result": "significantly increased"}]}, {"molecule": "CC1=C[C@H](O)CC(C)(C)[C@H]1/C=C/C(C)=C/C=C/C(C)=C/C=C/C=C(C)/C=C/C=C(C)/C=C/C1=C(C)C[C@@H](O)CC1(C)C", "note": "[Lutein]", "values": [{"measurement": "antioxidant activity relative to vitamin E", "setting": "[1]", "result": "2.3 times higher than vitamin E"}]}, {"molecule": "CC(C)=CCC/C(C)=C/C=C/C(C)=C/C=C/C(C)=C/C=C/C=C(C)/C=C/C=C(C)/C=C/C=C(\\C)CCC=C(C)C", "note": "[Lycopene]", "values": [{"measurement": "antioxidant activity relative to vitamin E", "setting": "[1]", "result": "2.8 times higher than vitamin E"}]}, {"molecule": "CC1=C(/C=C/C(C)=C/C=C/C(C)=C/C=C/C=C(C)/C=C/C=C(C)/C=C/C2=C(C)C[C@@H](O)CC2(C)C)C(C)(C)C[C@H](O)C1", "note": "[Zeaxanthin]", "values": [{"measurement": "antioxidant activity relative to vitamin E", "setting": "[1]", "result": "2.8 times higher than vitamin E"}]}, {"molecule": "low molecular weight heparin [LMWH]", "values": [{"measurement": "cardiac and hepatic lipid peroxidation induced by ADR", "setting": "heart and liver tissues", "result": "decreased"}, {"measurement": "rise in serum CPK (cardiotoxicity)", "setting": "heart and liver tissues; LMWH treatment", "result": "attenuated"}, {"measurement": "serum and tissue levels of LDH, aminotransferases and ALP", "setting": "heart and liver tissues", "result": "prevented the rise"}]}]}
